Laboratory results as given in patent publication EP1746087A1, “Derivates of 3-indolylmethylene having cytostatic properties” (Universitaet Regensburg, priority 2005, dated 2007).
Where two headings read alike, the source gives them in different places.

What was measured:
Type in all cases: cell-based, menschlich
[1] = test system: MDA-MB-231-Mammacarcinomzellen; assay: Flow-cytometric analysis of cell cycle distribution
From the text: (§1) Die cytostatische Wirkung der erfindungsgemäßen Verbindungen wurde an zwei verschiedenen menschlichen Mammacarcinomzellinien in vitro bestimmt (M. Goldbrunner et al., J.Med.Chem. 1997,40,3525). Es handelt sich dabei um die hormonunabhängige MDA-MB-231-Zellinie und die estrogensensitive MCF-7-Linie. Die MDA-MB-231-Zellen wurden auch für die durchflusszytometrischen Analysen zur Zellzyklusverteilung herangezogen (M.J.J. Jaroszeski und R. Heller, Flow Cytometry Protocols, Humana Press, 1998, Totowa New Jersey). Besonders überraschend war, dass diese synthetischen Verbindungen häufig bereits im Konzentrationsbereich von 10 bis 100 nanomolar das Wachstum von menschlichen Tumorzellen stark hemmen, obwohl sie nur ein relativ niedriges Molekulargewicht aufweisen (MG ~ 320 - 500) (Tabelle 2 und 3, Abb. 2). Potente Therapeutika, die ebenfalls in den Zellzyklus eingreifen, besitzen Molekulargewichte im Bereich von 825 (Vincristin als Base) und 850 (Paclitaxel).

[2] = test system: MDA-MB-231-Brustkrebszellen; assay: Growth inhibition of MDA-MB-231 breast cancer cells in vitro (cytostatic effect); settings: MDA-MB-231 cells, read-out: IC50 Hemmwirkung auf das Wachstum
From the text: as §1

[3] = test system: MCF-7-Mammacarcinomzellen; assay: Growth inhibition of MCF-7 mammary carcinoma cells in vitro (cytostatic effect); settings: MCF-7 cells, read-out: IC50 Hemmwirkung auf das Wachstum
From the text: as §1

In the case of CCCCCCc1ccc2[nH]c(-c3ccc(OC)cc3)c(C=C(C#N)C#N)c2c1 [Verbindung 9, [5-n-Hexyl-2-(4-methoxyphenyl)-indol-3-yl]-methylenpropandinitril], the Debris % ([1]; Konz. 0.1 µM) is reported as 6.1%, the G1/G0 % ([1]; Konz. 0.1 µM) is reported as 46.2% and the G2/M % ([1]; Konz. 0.1 µM) is reported as 22.4%. For the same molecule, the S % ([1]; Konz. 0.1 µM) was 25.3%, the Debris % ([1]; Konz. 0.5 µM) was 22.6% and the G1/G0 % ([1]; Konz. 0.5 µM) was 7.4%. It also gave a G2/M % ([1]; Konz. 0.5 µM) of 53.9%, a S % ([1]; Konz. 0.5 µM) of 16.1% and a Debris % ([1]; Konz. 1.0 µM) of 15.9%. It also gave a G1/G0 % ([1]; Konz. 1.0 µM) of 7.1%, a G2/M % ([1]; Konz. 1.0 µM) of 57.3% and a S % ([1]; Konz. 1.0 µM) of 19.7%. The IC50 ([2]; Homo sapiens) was 46 nM and the IC50 ([3]; Homo sapiens, MCF7) was 25 nM.

CCCCc1ccc2[nH]c(-c3ccc(C(F)(F)F)cc3)c(C=NC)c2c1 [Verbindung 19, 5-n-Butyl-2-[4-(trifluormethyl)-phenyl]-indol-3-carbaldehyd-methylimin] showed a Debris % ([1]; Konz. 0.01 µM) of 4.4%, a G1/G0 % ([1]; Konz. 0.01 µM) of 43.8% and a G2/M % ([1]; Konz. 0.01 µM) of 36.6%. The S % ([1]; Konz. 0.01 µM) was 14.0%, the Debris % ([1]; Konz. 0.05 µM) was 14.6% and the G1/G0 % ([1]; Konz. 0.05 µM) was 38.9%. The G2/M % ([1]; Konz. 0.05 µM) was 30.8%, the S % ([1]; Konz. 0.05 µM) was 15.3% and the Debris % ([1]; Konz. 0.1 µM) was 27.1%. For the same molecule, the G1/G0 % ([1]; Konz. 0.1 µM) was 5.5%, the G2/M % ([1]; Konz. 0.1 µM) was 59.3% and the S % ([1]; Konz. 0.1 µM) was 7.2%. The Debris % ([1]; Konz. 0.5 µM) was 20.5%, the G1/G0 % ([1]; Konz. 0.5 µM) was 6.3% and the G2/M % ([1]; Konz. 0.5 µM) was 59.8%. The S % ([1]; Konz. 0.5 µM) was 11.1%, the IC50 [2] was 32 nM and the IC50 [3] was 140 nM.

For CCCCc1ccc2[nH]c(-c3ccc(OC)cc3)c(C=NO)c2c1 [Verbindung 20, 5-n-Butyl-2-(4-methoxyphenyl)-indol-3-carbaldehyd-oxim], the Debris % ([1]; Konz. 0.05 µM) was 7.3%, the G1/G0 % ([1]; Konz. 0.05 µM) was 50.0% and the G2/M % ([1]; Konz. 0.05 µM) was 30.0%. It also gave a S % ([1]; Konz. 0.05 µM) of 13.2%, a Debris % ([1]; Konz. 0.1 µM) of 12.2% and a G1/G0 % ([1]; Konz. 0.1 µM) of 38.6%. The G2/M % ([1]; Konz. 0.1 µM) was 34.9%, the S % ([1]; Konz. 0.1 µM) was 14.4% and the Debris % ([1]; Konz. 0.5 µM) was 9.6%. For the same molecule, the G1/G0 % ([1]; Konz. 0.5 µM) was 9.0%, the G2/M % ([1]; Konz. 0.5 µM) was 64.6% and the S % ([1]; Konz. 0.5 µM) was 14.4%. It also gave a Debris % ([1]; Konz. 1.0 µM) of 13.8%, a G1/G0 % ([1]; Konz. 1.0 µM) of 9.6% and a G2/M % ([1]; Konz. 1.0 µM) of 54.8%. The S % ([1]; Konz. 1.0 µM) was 21.2%, the IC50 ([2]; Homo sapiens) was 40 nM and the IC50 ([3]; Homo sapiens, MCF7) was 210 nM.

In the case of CCCCc1ccc2[nH]c(-c3ccc(C(F)(F)F)cc3)c(C=NNC(=O)c3cccnc3)c2c1 [Verbindung 25, 5-Butyl-2-[4-(trifluormethyl)-phenyl]-indol-3-carbaldehyd-nicotinylhydrazone], the Debris % ([1]; Konz. 0.01 µM) is reported as 2.3%, the G1/G0 % ([1]; Konz. 0.01 µM) is reported as 50.8% and the G2/M % ([1]; Konz. 0.01 µM) is reported as 26.3%. It also gave a S % ([1]; Konz. 0.01 µM) of 21.7%, a Debris % ([1]; Konz. 0.05 µM) of 2.7% and a G1/G0 % ([1]; Konz. 0.05 µM) of 51.2%. It also gave a G2/M % ([1]; Konz. 0.05 µM) of 24.1%, a S % ([1]; Konz. 0.05 µM) of 23.1% and a Debris % ([1]; Konz. 0.1 µM) of 2.6%. It also gave a G1/G0 % ([1]; Konz. 0.1 µM) of 48.8%, a G2/M % ([1]; Konz. 0.1 µM) of 24.9% and a S % ([1]; Konz. 0.1 µM) of 24.4%. For the same molecule, the Debris % ([1]; Konz. 0.5 µM) was 6.9%, the G1/G0 % ([1]; Konz. 0.5 µM) was 11.4% and the G2/M % ([1]; Konz. 0.5 µM) was 75.2%. It also gave a S % ([1]; Konz. 0.5 µM) of 11.0%, an IC50 [2] of 97 nM and an IC50 [3] of 260 nM.
